Measurements published in patent US8772502B2, “Alkylsulfinyl-substituted thiazolide compounds” (Romark Laboratories, L.C., priority 2010, dated 2014).
“And” between values parts separate entries of the source, which are not always exact repeats. Identical values can stand only once. “Also recorded” adds a separate entry of the source. Like-named read-outs stand apart in the source and are kept apart here.

Experiments:
[1] = tested on: HCV replicon cell line, AVA5 (sub-genomic CON1, genotype 1b); test: Primary HCV replicon assay, antiviral activity (intracellular HCV RNA); format: cell-based
Protocol: (§1) Antiviral activity of test compounds was assessed in a 3-day assay using the stably-expressing HCV replicon cell line, AVA5 (sub-genomic CON1, genotype 1b) [Korba, B. E. et al. Antiviral Res. 77, 56-63 (2008); Blight et al., Science 290, 1972-1974 (2000)] maintained as sub-confluent cultures on 96-well plates as previously described [Okuse et al., Antiviral Research 65, 23-34 (2005)]. Antiviral activity was determined by blot hybridization analysis of intracellular HCV RNA (normalized to the level of cellular B-actin RNA in each culture sample) and cytotoxicity was assessed by neutral red dye uptake after 3 days of treatment. Additional studies were performed using Huh7 cells containing another HCV replicon, H/FL-Neo, a genotype 1a full length construct [Blight et al., J. Virol. 77, 3181-3190 (2003)]. For studies involving human serum, standard culture medium (which contains 10% fetal bovine serum) and assay conditions were maintained.
(§2) EC50, EC90 and CC50 values (±standard deviations [S.D.]) were calculated by linear regression analysis using data combined from all treated cultures (Korba, B. E. et al. Antiviral Res. 77, 56-63 (2008)). […] Selectivity index (S.I.) was calculated as CC50/EC90 for HBV assays and CC50/EC50 for HCV assays.

[2] = tested on: HCV replicon cell line, AVA5; test: Primary HCV replicon assay, cytotoxicity (neutral red dye uptake); conditions: primary assay; neutral red dye uptake after 3 days
Protocol: as §1, §2

[3] = tested on: HCV replicon cell line, AVA5 (sub-genomic CON1, genotype 1b); test: Secondary HCV replicon assay, genotype 1B, antiviral activity; format: cell-based
Protocol: as §1, §2

[4] = tested on: HCV replicon cell line, AVA5; test: Secondary HCV replicon assay, genotype 1B, cytotoxicity (neutral red dye uptake); conditions: secondary assay, genotype 1B; neutral red dye uptake
Protocol: as §1, §2

[5] = tested on: HCV replicon, H/FL-Neo, a genotype 1a full length construct; test: Secondary HCV replicon assay, genotype 1A, antiviral activity; format: cell-based
Protocol: as §1, §2

[6] = tested on: Huh7 cells containing HCV replicon H/FL-Neo; test: Secondary HCV replicon assay, genotype 1A, cytotoxicity (neutral red dye uptake); conditions: secondary assay, genotype 1A; neutral red dye uptake
Protocol: as §1, §2

[7] = cited from earlier work
cytochrome P450 enzymes = conditions: cited from earlier work
J6/JFH-1 HCV = test: Infectious genotype 2a cell culture assay (HCV replication by RT-PCR); format: cell-based; conditions: for efficacy with regards to HCV replication: Huh7.5/JFH-1 HCV cell culture system; for inhibition of J6/JFH-1 HCV replication: 1 μM test concentration
Protocol: (§3) Genotype 2a antiviral assays were conducted as previously described [Lindenbach, B. D.; Rice, C. M. et al. Science, 309, 623-626 (2005)]. […] Cell viability was determined using the Calcein assay kit (Biotium, Inc. Hayward, Calif., USA). The alternate method for measuring cell cytotoxicity was via the Guava Technologies ViaCount assay (Millipore) The ViaCount Assay provides rapid and reliable determinations of viability and total cell count. It distinguishes viable and non-viable cells based on differential permeabilities of two DNA-binding dyes in the Guava ViaCount® Reagent. The nuclear dye stains only nucleated cells, while the viability dye brightly stains dying cells. This combination of dyes enables the Guava ViaCount Assay to distinguish viable, apoptotic, and dead cells. Debris is excluded from results based on negative staining with the nuclear dye.
HCV replication levels were determined by RT-PCR on RNA from cell culture supernatants. J6-infected Huh 7.5 cells were seeded in 12-well plates at a density of 2.0E^5 cells/well in 1.5 mL of DMEM supplemented with 10% FBS and 1% Pen/Strep. […] A positive control of IFN-α at concentrations of 10 IU/mL and 50 IU/mL, negative control wells containing mock incubations of DMEM with 1 uL and 10 uL (the same volume of the molecular compounds at 1 uM and 10 uM, respectively) of DMSO was included to rule out nonspecific effects of DMSO on the cells, and J6-infected with only DMEM were used as negative controls. A final control group consisted of un-infected Huh 7.5 cells, plated at the same time and density as the J6-infected cells on a separate plate. 48 hours and 120 hours after incubation with thiazolides, the media was collected and frozen, cells were washed 2× with PBS, and lysed in 500 uL of lysis buffer per well. Following lysis, RNA was extracted from the cells using the RNAqueous-4PCR Kit from Ambion, and the RNA concentration determined using the NanoDrop® machine. Reverse-transcription reactions produced 1.5 μg of cDNA per sample, which was then used for rt-PCR to quantify the HCV viral load in each sample. Analysis of the rt-PCR results generated the fold increases and decreases of the HCV viral load in comparison to untreated J6 cells.

Huh 7.5 cells = test: Cytotoxicity in the infectious genotype 2a cell culture assay; format: cell-based
Protocol: as §3

[8] = Primary HCV replicon assay, cytotoxicity (neutral red dye uptake); conditions: human
Protocol: as §1, §2

[9] = Secondary HCV replicon assay, genotype 1B, cytotoxicity (neutral red dye uptake); conditions: human
Protocol: as §1, §2

[10] = Secondary HCV replicon assay, genotype 1A, cytotoxicity (neutral red dye uptake); conditions: human
Protocol: as §1, §2

cellular esterases = test: Metabolic stability of acetate prodrugs under the cell assay conditions; format: in vitro ADME
[11] = Hepatitis C virus, Ava5, primary assay, 2-fold depression of intracellular HCV RNA, read-out: EC50
[12] = Hepatitis C virus, Ava5, primary assay, 10-fold depression of intracellular HCV RNA, read-out: EC90
[13] = primary assay, 2-fold depression of intracellular HCV RNA, read-out: EC50
[14] = primary assay, 10-fold depression of intracellular HCV RNA, read-out: EC90

O=C(Nc1ncc([N+](=O)[O-])s1)c1ccccc1O [TIZ, Tizoxanide]
EC50 [1, 11]: 0.15 µM | EC90 [1, 12]: 0.81 µM | CC50 [2]: 15 µM | EC50 ([3]; Hepatitis C virus, Ava5): 0.19 µM | EC90 ([3]; Hepatitis C virus, Ava5): 0.92 µM | CC50 [4]: 28 µM | EC50 ([5]; Hepatitis C virus): 0.23 µM | EC90 ([5]; Hepatitis C virus): 1 µM | CC50 [6]: 27 µM | part of an oral dose excreted in feces as TIZ ([7]; oral dose of NTZ, feces): Approximately two-thirds | Maximum serum concentrations of TIZ ([7]; oral, one 500 mg NTZ tablet (Alinia) with food): approximately 10 μg/mL and ~37 μM | elimination half-life of TIZ from plasma ([7]; plasma): approximately 1.5 hours | inhibition of cytochrome P450 enzymes (cytochrome P450 enzymes): does not inhibit

CC(=O)Oc1ccccc1C(=O)Nc1ncc([N+](=O)[O-])s1 [NTZ, Nitazoxanide]
EC50 [1, 11]: 0.21 µM | EC90 [1, 12]: 0.98 µM | CC50 [2]: 31 µM | EC50 ([3]; Hepatitis C virus, Ava5): 0.25 µM | EC90 ([3]; Hepatitis C virus, Ava5): 0.95 µM | CC50 [4]: 35 µM | EC50 ([5]; Hepatitis C virus): 0.33 µM | EC90 ([5]; Hepatitis C virus): 1.1 µM | CC50 [6]: 49 µM | efficacy with regards to HCV replication (J6/JFH-1 HCV): demonstrated efficacy | inhibition of J6/JFH-1 HCV replication (J6/JFH-1 HCV; genotype G2a): shown to inhibit J6/JFH-1HCV replication | cytotoxic effect in Huh 7.5 cells (Huh 7.5 cells): without being cytotoxic; also recorded: Neither of these compounds showed a cytotoxic effect | detection in plasma ([7]; after oral 500 mg NTZ tablet): not detected

CC(=O)Oc1ccccc1C(=O)Nc1nc([S+](C)[O-])cs1 (stereo not drawn) [Compound 1, 2-(4-(methylsulfinyl)thiazol-2-ylcarbamoyl)phenyl acetate]
EC50 ([1]; Hepatitis C virus, Ava5): > 10 µM | EC90 ([1]; Hepatitis C virus, Ava5): > 10 µM | CC50 at 3 days [8]: > 100 µM

C[S+]([O-])c1csc(NC(=O)c2ccccc2O)n1 (stereo not drawn) [Compound 2, 2-hydroxy-N-(4-(methylsulfinyl)thiazol-2-yl)benzamide]
EC50 [1, 11]: 2 µM | EC90 [1, 12]: 4.6 µM | CC50 [2]: 63 µM | EC50 ([3]; Hepatitis C virus, Ava5): 2.2 µM | EC90 ([3]; Hepatitis C virus, Ava5): 6.1 µM | CC50 at 3 days [9]: > 100 µM | EC50 ([5]; Hepatitis C virus): 2.8 µM | EC90 ([5]; Hepatitis C virus): > 5 µM | CC50 at 3 days [10]: > 100 µM | efficacy with regards to HCV replication (J6/JFH-1 HCV): demonstrated efficacy | inhibition of J6/JFH-1 HCV replication (J6/JFH-1 HCV; genotype G2a): shown to inhibit J6/JFH-1HCV replication | relative potency, % of NTZ (J6/JFH-1 HCV; genotype G2a, at 0.1 μM): 88 % of NTZ | relative activity, % of NTZ (J6/JFH-1 HCV; genotype G2a, at 1 μM): 95 % of NTZ | cytotoxic effect in Huh 7.5 cells (Huh 7.5 cells): Neither of these compounds showed a cytotoxic effect | cytotoxic effect in Huh 7.5 cells (Huh 7.5 cells; listed as analog 2): without being cytotoxic

CC(=O)Oc1ccccc1C(=O)Nc1ncc(S(C)(=O)=O)s1 [RM4864]
EC50 [1, 13]: > 10 µM | EC90 [1, 14]: > 10 µM | CC50 [2]: 20 µM | metabolic stability (hydrolysis to the parent phenolic drug) (cellular esterases): metabolically stable

CS(=O)(=O)c1cnc(NC(=O)c2ccccc2O)s1 [RM4863]
EC50 [1, 13]: 1.5 µM | EC90 [1, 14]: 5.2 µM | CC50 [2]: 43 µM | EC50 [3]: 0.9 µM | EC90 [3]: 8.8 µM | CC50 [4]: > 10 µM | EC50 [5]: 0.8 µM | EC90 [5]: 3.4 µM | CC50 [6]: > 10 µM
